How the values were obtained:
Assay type in all cases: cell-based
[1] = test system: Wnt activity (Sp5-Luc reporter, SW480 colon carcinoma cells); experiment: Wnt activity screening assay, Sp5-Luc reporter gene in SW480 cells; conditions: Homo sapiens; for EC50: overnight incubation
Source text: The screening assay for Wnt activity is described as follows. Reporter cell lines can be generated by stably transducing cancer cell lines (e.g., colon cancer) or primary cells (e.g., IEC-6 intestinal cells) with a lentiviral construct that includes a Wnt-responsive promoter driving expression of the firefly luciferase gene.
SW480 colon carcinoma cells were transduced with a lentiviral vector expressing luciferase with a human Sp5 promoter consisting of a sequence of eight TCF/LEF binding sites. SW480 cells stably expressing the Sp5-Luc reporter gene and a hygromycin resistance gene were selected by treatment with 150 μg/mL of hygromycin for 7 days. These stably transduced SW480 cells were expanded in cell culture and used for all further screening activities. Each compound was dissolved in DMSO as a 10 mM stock and used to prepare compound source plates. Serial dilution (1:3, 10-point dose-response curves starting from 10 μM) and compound transfer was performed using the ECHO 550 (Labcyte, Sunnyvale, Calif.) into 384-well white solid bottom assay plates (Greiner Bio-One) with appropriate DMSO backfill for a final DMSO concentration of 0.1%. For Sp5-Luc reporter gene assays, the cells were plated at 4,000 cells/well in 384-well plates with medium containing 1% fetal bovine serum and incubated overnight at 37° C. and 5% CO2. Following incubation, 20 μl of BrightGlo luminescence reagent (Promega) was added to each well of the 384-well assay plates. The plates were placed on an orbital shaker for 2 min and then luminescence was quantified using the Envision (Perkin Elmer) plate reader. Readings were normalized to DMSO only treated cells, and normalized activities were utilized for EC50 calculations using the dose-response log (inhibitor) vs. response-variable slope (four parameters) nonlinear regression feature available in GraphPad Prism 5.0 (or Dotmatics). For EC50 of >10 μM, the percent inhibition at 10 μM is provided.

SW480 colon cancer cells = experiment: Cell viability assay (CellTiter-Blue); conditions: Homo sapiens, 96 h, four days
Experimental: Representative compounds were screened using the following assay procedure to assess the effect on cell viability as described below.
Each compound was dissolved in DMSO as a 10 mM stock and used to prepare compound source plates. Serial dilution (1:3, 8-point dose-response curves from 10 μM to 0.0045 μM) and compound transfer was performed using the ECHO 550 (Labcyte, Sunnyvale, Calif.) into 96-well clear bottom, black-walled plates (Corning-Costar).
Approximately 2×10^3 SW480 colon cancer cells were seeded into each well and allowed to incubate in the presence or absence of compound for four days at 37° C./5% CO2. Eight replicates of DMSO-treated cells served as controls and cells treated with compound were performed in duplicate.
After incubation, 20 μL of CellTiter-Blue (Promega) was added to each well allowed to incubate for approximately 3 hours. This reagent was a buffered solution which contains resazurin, metabolically active cells were able to reduce rezarurin (blue) into resorufin (pink) which was highly fluorescent. This measured fluorescence was used as a readout for cell viability.
After incubation, the plates were read at Ex 560 nm Em 590 nm (Cytation 3, BioTek). Dose-response curves were generated and EC50 concentration values were calculated using non-linear regression curve fit in the GraphPad Prism (San Diego, Calif.) or Dotmatics' Studies Software (Bishops Stortford, UK). For EC50 of >10 μM, the percent inhibition at 10 μM is provided.

[2] = test system: primary human fibroblasts derived from IPF patients (LL29 cells) treated with TGF-β1; experiment: Inhibition of fibrotic process, αSMA staining in TGF-β1 treated LL29 fibroblasts; conditions: Fibroblast, 96 h, % αSMA positive LL29 cells, TGF-β1 20 ng/mL, 4 days
Source text: Representative compounds were screened using primary human fibroblasts (derived from IPF patients) treated with TGF-β1 to determine their ability to inhibit the fibrotic process.
Primary human fibroblasts derived from IPF patients (LL29 cells) [^1Xiaoqiu Liu, et. al., “Fibrotic Lung Fibroblasts Show Blunted Inhibition by cAMP Due to Deficient cAMP Response Element-Binding Protein Phosphorylation”, Journal of Pharmacology and Experimental Therapeutics (2005), 315(2), 678-687; ^2Watts, K. L., et. al., “RhoA signaling modulates cyclin D1 expression in human lung fibroblasts; implications for idiopathic pulmonary fibrosis”, Respiratory Research (2006), 7(1), 88] were obtained from American Type Culture Collection (ATCC) and expanded in F12 medium supplemented with 15% Fetal Bovine Serum and Penicillin/Streptomycin.
Each compound was dissolved in DMSO as a 10 mM stock and used to prepare compound source plates. Serial dilution (1:2, 11-point dose-response curves from 10 μM to 1.87 nM) and compound transfer was performed using the ECHO 550 (Labcyte, Sunnyvale, Calif.) into 384-well clear bottom assay plates (Greiner Bio-One) with appropriate DMSO backfill for a final DMSO concentration of 0.1%. LL29 cells are plated at 1,500 cells/well in 80 μL/well F12 medium supplemented with 1% Fetal Bovine Serum. One hour after addition of the cells, TGF-β1 (Peprotech; 20 ng/mL) was added to the plates to induce fibrosis (ref. 1 and 2 above). Wells treated with TGF-β1 and containing DMSO were used as controls. Cells were incubated at 37° C. and 5% CO2 for 4 days. Following incubation for 4 days, SYTOX green nucleic acid stain (Life Technologies [Thermo Fisher Scientific]) was added to the wells at a final concentration of 1 μM and incubated at room temperature for 30 min. Cells were then fixed using 4% formaldehyde (Electron Microscopy Sciences), washed 3 times with PBS followed by blocking and permeabilization using 3% Bovine Serum Albumin (BSA; Sigma) and 0.3% Triton X-100 (Sigma) in PBS. Cells were then stained with antibody specific to α-smooth muscle actin (αSMA; Abcam) (ref. 1 and 2 above) in 3% Bovine Serum Albumin (BSA; Sigma) and 0.3% Triton X-100 (Sigma) in PBS, and incubated overnight at 4° C. Cells were then washed 3 times with PBS, followed by incubation with Alexa Flor-647 conjugated secondary antibody (Life Technologies [Thermo Fisher Scientific]) and DAPI at room temperature for 1 hour. Cells were then washed 3 times with PBS and plates were sealed for imaging. αSMA staining was imaged by excitation at 630 nm and emission at 665 nm and quantified using the Compartmental Analysis program on the CellInsight CX5 (Thermo Scientific). Dead or apoptotic cells were excluded from analysis based on positive SYTOX green staining. % of total cells positive for αSMA were counted in each well and normalized to the average of 11 wells treated with TGF-β1 on the same plate using Dotmatics' Studies Software. The normalized averages (fold change over untreated) of 3 replicate wells for each compound concentration were used to create dose-responses curves and EC50 values were calculated using non-linear regression curve fit in the Dotmatics' Studies Software. For EC50 of >10 μM, the percent inhibition at 10 μM is provided.

IL-6 (THP-1 cells) = experiment: IL-6 inhibition in LPS-stimulated THP-1 cells (HTRF); conditions: Homo sapiens; IL-6 in THP-1 cells, LPS 500 ng/mL, 22 hours
Experimental: Human monocyte cell line (THP-1 cells; Catalog # TIB-202, ATCC, Manassas, Va.) were cultured in Roswell Park Memorial Institute (RPMI) 1640 Medium (Catalog #21870-100, Buffalo, N.Y.) with 1% L-glutamine, 1% HEPES, 1% Sodium Pyruvate, 2% Sodium Bicarbonate supplemented with 100 units/mL penicillin, 50 μg/mL streptomycin, 2-mercaptoethanol (0.05 mM) [basal medium] and 10% fetal bovine serum (Catalog #16140089, Life Technologies, Carlsbad, Calif.) at 37° C. and 5% CO2.
THP-1 cells were cultured in basal media with 1% FBS for 24 hours before the start of the assay. Each compound was dissolved in DMSO as a 10 mM stock and used to prepare compound source plates. Serial dilution (1:3, 10-point dose-response curves starting from 10 μM) and compound transfer was performed using the ECHO 550 (Labcyte, Sunnyvale, Calif.) into 384-well white low volume assay plates (Greiner Bio-One) with appropriate DMSO backfill for a final DMSO concentration of 0.1%. THP-1 cells were plated at 5000 cells/well in the 384-well plates and incubated at 37° C. for 2 h. 500 ng/mL of LPS was added after 2 hours and cells were incubated for another 22 hours at 37° C. Plates were spun in a centrifuge for 1 minute at […] and a mixture of anti-IL6 XL665, and anti-IL6 Cryptate diluted in reconstitution buffer (Cisbio Inc.) was added to each well. Following incubation for 3 hrs at room temperature, Homogeneous Time-Resolved Fluorescence (HTRF) was measured using the Envision (Perkin Elmer) at 665 nm and […]. The ratio of fluorescence at 665 nm to 620 nm was used as a readout for IL6 quantification. All samples were processed in duplicate. Readings were normalized to DMSO treated cells and normalized activities were utilized for EC50 calculations using the dose-response log (inhibitor) vs. response-variable slope (four parameters) nonlinear regression feature available in GraphPad Prism 5.0 (or Dotmatics). For EC50 of >10 μM, the percent inhibition at 10 μM is provided.

For `Cc1ccncc1-c1cc2c(-c3cc4c(-c5ccc(F)cc5)ccnc4[nH]3)n[nH]c2cn1` [Compound 33, 3-(4-(4-Fluorophenyl)-1H-pyrrolo[2,3-b]pyridin-2-yl)-5-(4-methylpyridin-3-yl)-1H-pyrazolo[3,4-c]pyridine], the EC50 [1] was 642 nM, the EC50 (SW480 colon cancer cells) was 1050 nM and the EC50 [2] was 146 nM. For the same compound, the EC50 (IL-6 (THP-1 cells)) was 4050 nM.

For `CC(C)Nc1cncc(-c2cc3c(-c4cc5c(-c6ccc(F)cc6)ccnc5[nH]4)n[nH]c3cn2)c1` [Compound 40, 5-(3-(4-(4-Fluorophenyl)-1H-pyrrolo[2,3-b]pyridin-2-yl)-1H-pyrazolo[3,4-c]pyridin-5-yl)-N-isopropylpyridin-3-amine], the EC50 [1] was 223 nM, the EC50 (SW480 colon cancer cells) was 179 nM and the EC50 [2] was 43 nM. The EC50 (IL-6 (THP-1 cells)) was 9380 nM.

In the case of `CC(C)(C)CC(=O)Nc1cncc(-c2cc3c(-c4cc5c(-c6ccc(F)cc6)ccnc5[nH]4)n[nH]c3cn2)c1` [Compound 44, N-(5-(3-(4-(4-Fluorophenyl)-1H-pyrrolo[2,3-b]pyridin-2-yl)-1H-pyrazolo [3,4-c]pyridin-5-yl)pyridin-3-yl)-3,3-dimethylbutanamide], the EC50 [1] is reported as 144 nM, the EC50 (SW480 colon cancer cells) is reported as 1160 nM and the EC50 [2] is reported as 311 nM. The EC50 (IL-6 (THP-1 cells)) was 4400 nM.

Compound `Fc1ccc(-c2ccnc3[nH]c(-c4n[nH]c5cnc(-c6cncc(CN7CCC(F)(F)C7)c6)cc45)cc23)cc1` [Compound 54, 5-(5-((3,3-Difluoropyrrolidin-1-yl)methyl)pyridin-3-yl)-3-(4-(4-fluorophenyl)-1H-pyrrolo[2,3-b]pyridin-2-yl)-1H-pyrazolo[3,4-c]pyridine] has an inhibition at 10 µM ([1]; at 10 μM, given where EC50 >10 μM, read-out: percent inhibition at 10 μM) of 28.1%, an EC50 [1] of over 10000 nM and an EC50 (SW480 colon cancer cells) of 1400 nM. For the same compound, the EC50 [2] was 1110 nM and the EC50 (IL-6 (THP-1 cells)) was 2050 nM.

Compound `Fc1ccccc1-c1ccnc2[nH]c(-c3n[nH]c4cnc(-c5ccccn5)cc34)cc12` [Compound 84, 3-(4-(2-Fluorophenyl)-1H-pyrrolo[2,3-b]pyridin-2-yl)-5-(pyridin-2-yl)-1H-pyrazolo[3,4-c]pyridine] has an EC50 [1] of 279 nM, an EC50 (SW480 colon cancer cells) of 411 nM and an EC50 [2] of 561 nM. For the same compound, the EC50 (IL-6 (THP-1 cells)) was 6420 nM.

Compound `c1cncc(-c2cc3c(-c4cc5c(N6CCCCC6)ccnc5[nH]4)n[nH]c3cn2)c1` [Compound 172, 3-(4-(Piperidin-1-yl)-1H-pyrrolo[2,3-b]pyridin-2-yl)-5-(pyridin-3-yl)-1H-pyrazolo[3,4-c]pyridine] has an EC50 [1] of 2240 nM, an EC50 (SW480 colon cancer cells) of 3540 nM and an EC50 [2] of 1730 nM. For the same compound, the EC50 (IL-6 (THP-1 cells)) was 3400 nM.

`CC(C)C(=O)Nc1cncc(-c2cc3c(-c4cc5c(N6CCCCC6)ccnc5[nH]4)n[nH]c3cn2)c1` [Compound 177, N-(5-(3-(4-(Piperidin-1-yl)-1H-pyrrolo[2,3-b]pyridin-2-yl)-1H-pyrazolo[3,4-c]pyridin-5-yl)pyridin-3-yl)isobutyramide] gave an EC50 [1] of 867 nM, an EC50 (SW480 colon cancer cells) of 1080 nM and an EC50 [2] of 1490 nM. For the same compound, the EC50 (IL-6 (THP-1 cells)) was 9850 nM.

Work on `CC(C)Nc1cncc(-c2cc3c(-c4cc5c(N6CCCCC6)ccnc5[nH]4)n[nH]c3cn2)c1` [Compound 180, N-Isopropyl-5-(3-(4-(piperidin-1-yl)-1H-pyrrolo[2,3-b]pyridin-2-yl)-1H-pyrazolo[3,4-c]pyridin-5-yl)pyridin-3-amine] yielded an EC50 [1] of 1630 nM, an EC50 (SW480 colon cancer cells) of 1540 nM and an EC50 [2] of 2430 nM. For the same compound, the EC50 (IL-6 (THP-1 cells)) was 9550 nM.

In the case of `CC(C)(C)CC(=O)Nc1cncc(-c2cc3c(-c4cc5c(N6CCCCC6)ccnc5[nH]4)n[nH]c3cn2)c1` [Compound 184, 3,3-Dimethyl-N-(5-(3-(4-(piperidin-1-yl)-1H-pyrrolo[2,3-b]pyridin-2-yl)-1H-pyrazolo[3,4-c]pyridin-5-yl)pyridin-3-yl)butanamide], the EC50 [1] is reported as 3240 nM, the EC50 (SW480 colon cancer cells) is reported as 4300 nM and the EC50 [2] is reported as 1960 nM. The EC50 (IL-6 (THP-1 cells)) was 3310 nM.

For `O=C(Nc1cncc(-c2cc3c(-c4cc5c(-c6ccoc6)ccnc5[nH]4)n[nH]c3cn2)c1)C1CC1` [Compound 328, N-(5-(3-(4-(Furan-3-yl)-1H-pyrrolo[2,3-b]pyridin-2-yl)-1H-pyrazolo[3,4-c]pyridin-5-yl)pyridin-3-yl)cyclopropanecarboxamide], the EC50 [1] was 121 nM, the EC50 (SW480 colon cancer cells) was 107 nM and the EC50 [2] was 37 nM. It also gave an EC50 (IL-6 (THP-1 cells)) of 533 nM.

Reference: patent US10285982B2, “3-(1H-pyrrolo[2,3-B]pyridin-2-yl)-1H-pyrazolo[3,4-C]pyridines and therapeutic uses thereof” (Samumed, LLC, priority 2015, dated 2019)
